Test results taken from ChEMBL document CHEMBL3886985, “Benzothiophene derivative” (2016).

What follows are compounds tested against T1, cAMP and cAMP-inhibited cGMP 3',5'-cyclic phosphodiesterase 10A (Homo sapiens, UniProt Q9Y233) (assay: Activity Assay: Inhibitory activity-1 assay: To a solution containing 20 mM Tris-HCl (pH 7.5), 1 mM MgCl2, 100 μM EDTA, 330 μg/ml bovine serum albumin, 50 kU/ml 5′-nucleotidase, 0.1 μCi 3H-cAMP (64 nM cAMP), and PDE10A (H-PDE10A2, Human Phosphodiesterase 10A2, Scottish Biomedical), a test compound was added, and the mixture was reacted at 25° C. for 2 hours. To the reaction solution, QAE-Sephadex (17-0190-01, GE Healthcare Japan Corp.) suspended in 10 mM HEPES-Na (pH 7.0) (hereinafter, also referred to as a “QAE-Sephadex suspension”) was added, and the mixture was shaken for 1 minute and left standing for 5 minutes to obtain a supernatant. To the supernatant, a QAE-Sephadex suspension was further added, and the mixture was shaken for 1 minute and left standing for 5 minutes. Then, the obtained supernatant was transferred to LumaPlate (PerkinElmer, Inc.) and assayed using a radiation counter (TopCount NXT, PerkinElmer, Inc.).).
T1 sequence (Q9Y233 whole entry): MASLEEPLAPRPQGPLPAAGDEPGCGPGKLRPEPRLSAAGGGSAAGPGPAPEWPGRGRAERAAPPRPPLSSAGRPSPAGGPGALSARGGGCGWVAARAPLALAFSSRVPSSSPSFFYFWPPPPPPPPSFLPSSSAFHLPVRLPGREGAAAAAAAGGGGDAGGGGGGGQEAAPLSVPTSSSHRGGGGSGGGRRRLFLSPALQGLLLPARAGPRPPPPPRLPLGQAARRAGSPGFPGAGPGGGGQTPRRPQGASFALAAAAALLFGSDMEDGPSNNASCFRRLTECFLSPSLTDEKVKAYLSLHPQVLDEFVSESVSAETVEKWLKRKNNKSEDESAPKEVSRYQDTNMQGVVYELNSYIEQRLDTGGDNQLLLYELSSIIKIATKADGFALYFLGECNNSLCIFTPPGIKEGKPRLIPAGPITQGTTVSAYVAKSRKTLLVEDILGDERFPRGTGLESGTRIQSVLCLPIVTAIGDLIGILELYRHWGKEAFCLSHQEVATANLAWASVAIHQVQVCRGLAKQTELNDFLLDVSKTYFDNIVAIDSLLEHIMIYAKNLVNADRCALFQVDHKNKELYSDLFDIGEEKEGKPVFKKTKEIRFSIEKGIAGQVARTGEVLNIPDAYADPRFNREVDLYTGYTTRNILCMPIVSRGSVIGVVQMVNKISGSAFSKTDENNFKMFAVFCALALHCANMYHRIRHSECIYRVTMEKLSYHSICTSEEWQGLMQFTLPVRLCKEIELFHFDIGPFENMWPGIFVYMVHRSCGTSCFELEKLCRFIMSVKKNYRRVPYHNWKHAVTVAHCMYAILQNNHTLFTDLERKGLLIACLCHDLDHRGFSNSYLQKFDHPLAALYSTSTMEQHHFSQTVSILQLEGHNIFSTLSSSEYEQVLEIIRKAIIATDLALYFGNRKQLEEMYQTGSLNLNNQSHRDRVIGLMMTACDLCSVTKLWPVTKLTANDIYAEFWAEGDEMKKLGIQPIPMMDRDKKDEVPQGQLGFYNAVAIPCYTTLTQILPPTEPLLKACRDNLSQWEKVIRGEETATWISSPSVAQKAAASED

SMILES | IC50 [nM]
COCc1ccc(C(C)=O)c2sc(C(=O)Nc3ccc4c(COP(=O)(O)O)cccc4n3)c(C)c12 | 0.99

The compounds below were run against T1, cAMP and cAMP-inhibited cGMP 3',5'-cyclic phosphodiesterase 10A (assay: Activity Assay: A human acute lymphoblastic […] T cell line MOLT-4 (which can be purchased under ATCC No. CRL-1582 from ATCC) was cultured in an RPMI1640 medium containing 10% fetal bovine serum to obtain 5108 MOLT-4 cells. The cells were recovered by centrifugation and suspended in 10 ml of buffer solution A (25 mM Tris-HCl, 5 mM 2-mercaptoethanol, 2 mM benzamidine, 2 mM EDTA, and 0.1 mM 4-(2-aminoethyl)benzenesulfonyl hydrochloride, pH 7.5). The cells were homogenized using a Polytron homogenizer and centrifuged (4° C., 25,000 g, 10 minutes). Then, the supernatant was further ultracentrifuged (4° C., 100,000 g, 60 minutes). The obtained supernatant was filtered through a 0.2um filter to obtain a soluble fraction.HiTrap Q HP column (5 ml2, GE Healthcare Japan Corp.) equilibrated with buffer solution A was charged with the obtained soluble fraction. Phosphodiesterase was eluted with 300 ml of buffer solution A containing a linear gradient solution of 0 to 0.8 M NaCl to recover sixty 5-ml fractions. Each fraction was tested for cAMP-metabolizing phosphodiesterase activity. […] In order to confirm whether or not PDE10A mRNA was expressed in the MOLT-4 cells, total RNA was prepared from the MOLT-4 cells according to a standard method and analyzed by RT-PCR using PDE10A gene-specific primers (PDE10A sense primer: 5'-[…]-3' (SEQ ID NO: 1) and PDE10A antisense primer: 5'-[…]-3' (SEQ ID NO: 2)). As a result, PDE10A mRNA was detected from the total RNA of the MOLT-4 cells. On the other hand, total RNA was prepared from Jurkat cells, one type of human T cell, and similarly subjected to RT-PCR. As a result, PDE10A mRNA was rarely detected. An active peak centered around 250 mM NaCl was not observed in fractions obtained by the treatment of Jurkat cells in the same way as above. Eur J Biochem. 1999, 266 (3), 1118-2 has reported that PDE10A from the rat striatum and testis is eluted as an active peak centered around 250 mM NaCl.).
Type: cell-based

IC50 [nM] | SMILES
1.8 | COCc1ccc(C(C)=O)c2sc(C(=O)Nc3ccc4c(CN(C)C)cccc4n3)c(C)c12
1 | COCc1ccc(C(C)=O)c2sc(C(=O)Nc3ccc4c(COC(=O)CCC(=O)O)cccc4n3)c(C)c12
0.45 | COCc1ccc(C(C)=O)c2sc(C(=O)Nc3cc(N(C)C)c4ccccc4n3)c(C)c12
1.1 | COCc1ccc(C(C)=O)c2sc(C(=O)Nc3ccc4ccccc4n3)c(C)c12
1.3 | COCc1ccc(C(C)=O)c2sc(C(=O)Nc3ccc4c(CN5CCOCC5)cccc4n3)c(C)c12
0.31 | COCc1ccc(C(C)=O)c2sc(C(=O)Nc3ccc4c(C(=O)N5CCN(C)CC5)cccc4n3)c(C)c12
1.2 | COCc1ccc(C(C)=O)c2sc(C(=O)Nc3ccc4c(CN5CC[C@@H](F)C5)cccc4n3)c(C)c12
